Assay results: patent US9994552B2, “Compositions useful for treating disorders related to kit” (BLUEPRINT MEDICINES CORPORATION, priority 2013, dated 2018)

How the values were obtained:
wild type Kit = wild type Kit (Homo sapiens (Human), UniProt P10721); assay: Kit wild type assay at Km (Caliper electrophoretic mobility shift); type: biochemical; settings: wild type Kit 2 nM, 400 uM ATP (Km), 1 uM Srctide, 25 C, 90 minutes; read-out: INH-KITWT ENZ-KM IC50 (nM) (Num)
Experimental: (§1) In order to assess the activity of chemical compounds against the relevant kinase of interest, the Caliper LifeSciences electrophoretic mobility shift technology platform is used. Fluorescently labeled substrate peptide is incubated in the presence of kinase and ATP so that a […] proportion of the peptide is phosphorylated. At the end of the reaction, the mix of phosphorylated (product) and non-phosphorylated (substrate) peptides are passed through the microfluidic system of the Caliper EZ Reader 2, under an applied potential difference. The presence of the phosphate group on the product peptide provides a difference in mass and charge between those of the substrate peptide, resulting in a separation of the substrate and product pools in the sample. As the pools pass a LEDS within the instrument, these pools are detected and resolved as separate peaks. The ratio between these peaks therefore reflects the activity of the chemical matter at that concentration in that well, under those conditions.
(§2) The reaction was stopped by the addition of 70 ul of Stop buffer (100 mM HEPES pH 7.5, 0.015% Brij 35, 35 mM EDTA and 0.2% of Coating Reagent 3 (Caliper Lifesciences)). The plate was then read on a Caliper EZReader 2 (protocol settings: −1.9 psi, upstream voltage −700, downstream voltage −3000, post sample sip 35 s).

D816V Kit = D816V Kit (Homo sapiens (Human), UniProt P10721, D816V); assay: Kit D816V assay at Km (Caliper electrophoretic mobility shift); type: biochemical; settings: D816V Kit 0.5 nM, 15 uM ATP (Km), 1 uM Srctide, 25 C, 90 minutes; read-out: INH-KITD816V ENZ-KM IC50 (nM) (Num)
Experimental: as §1, §2

[1] = molecular target: Kit D816V kinase activity (Kit autophosphorylation at tyrosine 719) (Homo sapiens (Human), UniProt P10721, D816V/V560G); assay: HMC1.2 Autophosphorylation Assay (AlphaLISA phospho-Y719 c-Kit)
Experimental: 10,000 HMC1.2 cells were incubated in 22 ul culture media (phenol-red free IMDM, no serum) in each well of a 384-well plate and serum starved overnight in a tissue culture incubator (5% CO2, 37° C.). […] After 90 minutes, 6 ul of 5× AlphaLISA Lysis Buffer (Perkin Elmer) supplemented with a protease and phosphatase inhibitor cocktail (Cell Signaling Technologies) was added to each well and shaken at 450 rpm for 15 minutes at 4° C. […] 10 ul of 100 ug/ml streptavidin donor beads (Perkin Elmer) were added to each well, blocked from light with aluminum adhesive and shaken at 300 rpm at room temperature for 2 hours. Fluorescence signal was obtained on Envision (Perkin Elmer) by AlphaScreen 384 well HTS protocol.

HMC1.2 cells = assay: HMC1.2 Proliferation Assay (CellTiter-Glo); settings: 72 h, read-out: HMC1.2 Proliferation IC50
Experimental: 1000 HMC1.2 cells were incubated in 22 ul culture media (IMDM, 10% calf serum with Iron) in each well of a 384-well plate overnight in a tissue culture incubator (5% CO2, 37° C.). […] After 3 days incubation in tissue culture incubator, 25 ul CellTiter-Glo (Promega) solution was added to each well for ATP/cell viability measurement.
In addition, these compounds were assayed for their ability to inhibit the dependence of these cells on Kit kinase activity by disrupting their growth and proliferation.

wild type Kit, sequence (P10721 26-976): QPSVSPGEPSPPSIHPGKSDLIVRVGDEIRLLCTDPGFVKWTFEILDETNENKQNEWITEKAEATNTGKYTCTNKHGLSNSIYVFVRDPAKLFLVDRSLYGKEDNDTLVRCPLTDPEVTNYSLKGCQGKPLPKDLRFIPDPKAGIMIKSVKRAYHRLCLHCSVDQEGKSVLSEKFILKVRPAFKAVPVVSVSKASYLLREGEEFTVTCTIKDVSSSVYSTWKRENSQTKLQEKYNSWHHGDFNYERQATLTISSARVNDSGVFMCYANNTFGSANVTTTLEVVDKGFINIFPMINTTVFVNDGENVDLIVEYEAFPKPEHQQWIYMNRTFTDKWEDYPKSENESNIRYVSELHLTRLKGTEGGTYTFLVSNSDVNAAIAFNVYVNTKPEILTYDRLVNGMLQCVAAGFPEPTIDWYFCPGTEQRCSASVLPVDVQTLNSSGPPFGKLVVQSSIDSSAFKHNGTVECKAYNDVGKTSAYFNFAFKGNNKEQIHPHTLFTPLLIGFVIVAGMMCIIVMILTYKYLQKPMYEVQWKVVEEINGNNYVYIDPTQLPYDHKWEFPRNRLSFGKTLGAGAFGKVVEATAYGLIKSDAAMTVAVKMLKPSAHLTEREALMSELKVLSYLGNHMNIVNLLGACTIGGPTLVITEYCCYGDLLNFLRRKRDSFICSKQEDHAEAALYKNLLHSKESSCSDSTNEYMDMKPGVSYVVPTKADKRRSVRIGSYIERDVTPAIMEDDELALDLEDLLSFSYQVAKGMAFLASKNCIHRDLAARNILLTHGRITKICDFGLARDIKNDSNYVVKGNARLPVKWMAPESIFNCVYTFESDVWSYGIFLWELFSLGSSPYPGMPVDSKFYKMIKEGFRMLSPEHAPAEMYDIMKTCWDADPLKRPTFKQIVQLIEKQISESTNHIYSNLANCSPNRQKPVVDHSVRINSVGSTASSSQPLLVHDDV
Kit D816V kinase activity (Kit autophosphorylation at tyrosine 719), sequence (P10721 26-976 V560G/D816V): as the sequence (P10721 26-976) above, with V535G, D791V counted along it
D816V Kit, sequence (P10721 26-976 D816V): as the sequence (P10721 26-976) above, with D791V counted along it

| IC50 (wild type Kit) [nM] | IC50 (D816V Kit) [nM] | IC50 [1] [nM] | Compound | IC50 (HMC1.2 cells) [nM] |
| --- | --- | --- | --- | --- |
| 11 to 100 | < 1 | 10 to 100 | COc1cc2ncnc(N3CCN(c4ncc(Cc5ccccc5)cn4)CC3)c2cc1OCC1CNCCO1 (centres unmarked) [Compound 105] | 100 to 1000 |
| 100 to 1000 | 1.01 to 10 | 100 to 1000 | COc1cc2ncnc(N3CCN(c4ncc(Nc5ccccc5)cn4)CC3)c2cc1OC [Compound 13, 2-(4-(6,7-dimethoxyquinazolin-4-yl)piperazin-1-yl)-N-phenylpyrimidin-5-amine] | 1000 to 10000 |
| < 10 | < 1 | 1000 to 10000 | COc1cc2ncnc(N3CCN(c4ncc(Cc5ccccc5)c(=O)[nH]4)CC3)c2cc1OCC1CNCCO1 (centres unmarked) [Compound 119] | > 10000 |
| 11 to 100 | < 1 | 10 to 100 | COc1cc2ncnc(N3CCN(c4ncc(Cc5ccccc5)cn4)CC3)c2cc1OCC1CCNCC1 [Compound 98] | 1000 to 10000 |
| 11 to 100 | < 1 | 100 to 1000 | COc1cc2c(N3CCN(c4ncc(Cc5ccccc5)cn4)CC3)ncnc2cc1OCCN1CCCC1=O [Compound 111] | 1000 to 10000 |
| < 10 | < 1 | 100 to 1000 | COc1cc2ncnc(N3CCN(c4ncc(Cc5ccccc5)c(O)n4)CC3)c2cc1OC [Compound 35] | 100 to 1000 |
| 100 to 1000 | 1.01 to 10 |  | COc1cc2ncnc(N3CCN(c4ncc(Nc5ccccc5)cn4)[C@H](C)C3)c2cc1OC [Compound 30] | 1000 to 10000 |
| 11 to 100 | 1.01 to 10 | 100 to 1000 | COc1cc2ncnc(N3CCN(c4ncc(Cc5ccccc5)cn4)CC3)c2cc1OCC(O)CO (centres unmarked) [Compound 84] | 1000 to 10000 |
| 100 to 1000 | 10 to 100 | 1000 to 10000 | COc1cc2c(N3CCN(c4ncc(Cc5ccccc5)cn4)CC3)ncnc2cc1OCCCN1CCCCC1 [Compound 123] | 1000 to 10000 |
| 11 to 100 | < 1 | 10 to 100 | COc1cc2ncnc(N3CCN(c4ncc(Cc5ccccc5)cn4)CC3)c2cc1OCC1CCN(C)CC1 [Compound 112] | 1000 to 10000 |
| 11 to 100 | 1.01 to 10 | 100 to 1000 | COc1cc2c(N3CCN(c4ncc(Nc5ccc(C)cc5)cn4)CC3)ncnc2cc1OCCCN1CCCCC1 [Compound 137] | 1000 to 10000 |
| 100 to 1000 | 10 to 100 |  | COc1cc2c(N3CCN(c4ncc(Br)cn4)CC3)ncnc2cc1OCCCN1CCCC1 [Compound 107] | 1000 to 10000 |
| 100 to 1000 | 10 to 100 |  | COc1ccc2ncnc(N3CCN(c4ncc(Cc5ccccc5)cn4)[C@H](C)C3)c2c1 [Compound 7] | 1000 to 10000 |
| < 10 | < 1 | 10 to 100 | COc1cc2c(N3CCN(c4ncc(Cc5ccccc5)cn4)CC3)ncnc2cc1OCCCN1CCN(C)CC1 [Compound 134] | 100 to 1000 |
| 100 to 1000 | 10 to 100 |  | COc1cc2ncnc(N3CCN(c4ncc(Cc5ccc(C(F)(F)F)cc5)cn4)CC3)c2cc1OC [Compound 88] | > 10000 |
| 100 to 1000 | 10 to 100 |  | COc1ccc2ncnc(N3CCN(c4ncc(Cc5ccccc5)cn4)CC3)c2c1 [Compound 5] | 1000 to 10000 |
| 11 to 100 | 1.01 to 10 |  | COc1cc2ncnc(N3CCN(c4ncc(Cc5ccc(C)cc5)cn4)C(=O)C3)c2cc1OC [Compound 22] | 1000 to 10000 |
| 100 to 1000 | 1.01 to 10 |  | COc1cc2ncnc(N3CCN(c4ncc(Nc5ccc(F)cc5)cn4)CC3)c2cc1OC [Compound 42] | 1000 to 10000 |
| 100 to 1000 | 10 to 100 |  | COc1cc2ncnc(N3CCN(c4ncc(Nc5cccnc5)cn4)CC3)c2cc1OC [Compound 16] |  |
| 100 to 1000 | 10 to 100 |  | COc1cc2ncnc(N3CCN(c4ncc(OCc5cccc(C)c5)cn4)CC3)c2cc1OC [Compound 61] |  |
| 11 to 100 | < 1 |  | COc1cc2ncnc(N3CCN(c4ncc(Cc5ccccc5)cn4)CC3)c2cc1OCC1CCN(C)C1 (centres unmarked) [Compound 96] |  |
